Assay results taken from US10351594B2, “Process for preparing compounds having triple activities of thrombolysis, antithrombosis, and radical scavenging” (Shanghai Lumosa Therapeutics Co., Ltd., priority 2013, dated 2019).
Where two headings read alike, the source gives them in different places.

System: stroke rats
[1] = 2.5 μmol/kg 5Ak after 6 hours from stroke onset, 1st day
[2] = 2.5 μmol/kg 5Ak after 6 hours from stroke onset, 2nd day
[3] = 2.5 μmol/kg 5Ak after 6 hours from stroke onset, 3rd day
[4] = 2.5 μmol/kg 5Ak after 6 hours from stroke onset, 4th day
[5] = 2.5 μmol/kg 5Ak after 6 hours from stroke onset, 5th day
[6] = 2.5 μmol/kg 5Ak after 6 hours from stroke onset, 6th day
[7] = 2.5 μmol/kg 5Ak after 24 hours from stroke onset, 1st day
[8] = 2.5 μmol/kg 5Ak after 24 hours from stroke onset, 2nd day
[9] = 2.5 μmol/kg 5Ak after 24 hours from stroke onset, 3rd day
[10] = 2.5 μmol/kg 5Ak after 24 hours from stroke onset, 4th day
[11] = 2.5 μmol/kg 5Ak after 24 hours from stroke onset, 5th day
[12] = 2.5 μmol/kg 5Ak after 24 hours from stroke onset, 6th day
[13] = 5 μmol/kg 5Ak after 24 hours from stroke onset, 1st day
[14] = 5 μmol/kg 5Ak after 24 hours from stroke onset, 2nd day
[15] = 5 μmol/kg 5Ak after 24 hours from stroke onset, 3rd day
[16] = 5 μmol/kg 5Ak after 24 hours from stroke onset, 4th day
[17] = 5 μmol/kg 5Ak after 24 hours from stroke onset, 5th day
[18] = 5 μmol/kg 5Ak after 24 hours from stroke onset, 6th day
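Also: male SD rats with thrombus-induced cerebral embolism via internal carotid artery, scored daily by Zealonga neurological deficit scale (0 no deficit to 5 death), lower score better.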

Method: The therapeutic effect was evaluated by neurological functional scores. The lower the score was, the better the therapeutic effect was. A 10% chloral hydrate solution was injected intraperitoneally into male SD rats at a dosage of 400 mg/kg body weight for anesthesia. A longitudinal incision was made at the center of the neck, and the right common carotid artery trunk was separated (about 3 cm in length). External carotid artery branches were each separated and ligated at the hyoid level, and the internal carotid artery was separated from the swollen part of the neck. The incision of the internal carotid artery and the proximal end of the common carotid artery were clipped respectively with noninvasive arterial clips, and the distal end of the external carotid artery was ligated. A catheter containing 0.5 mL thrombus suspension in normal saline was inserted in the external carotid artery trunk. When the clip on the internal carotid artery was released, the 0.5 mL thrombus suspension in normal saline in the catheter slowly flew from the external carotid artery to its proximal end, and then was injected into the arteries in brain through the internal carotid artery. Subsequently, the proximal end of the internal carotid artery was ligated, the arterial clips on the internal carotid artery and the common carotid artery were released, and blood flow was restored. After the wound was stitched up, 20,000 IU penicillin was intramuscularly injected for prevention from infection. […] Self-comparison was performed each day, and the neurological deficit degree was evaluated by the Zealonga method. A score of 0 indicated no sign of loss in neural function, 1 indicated the front limbs on the undamaged side could not stretch out, 2 indicated walking toward the undamaged side, 3 indicated tail-chasing walking in circles toward the undamaged side, 4 indicated involuntary walking with disturbance of consciousness, and 5 indicated death.

C[C@H](NC(=O)[C@@H]1CCCN1)C(=O)N[C@@H](CCCCN)C(=O)NCCCC[C@H](NC(=O)[C@@H]1Cc2cc(O)c(O)cc2C(C)(C)N1)C(=O)O [Compound 5Ak, 3S-6,7-dihydroxy-1,1-dimethyl-1,2,3,4-tetrahydro-isoquinoline-3-acyl-Lys(Pro-Ala-Lys)]
therapeutic effect, result in words (2.5 μmol/kg 5Ak after 6 hours from stroke onset): better therapeutic effect than 1 μmol/kg 5Ak
Daily neural function scores, number of rats under 0 score [1]: 1
Daily neural function scores, number of rats under 1 score [1]: 7
Daily neural function scores, number of rats under 2 scores [1]: 0
Daily neural function scores, number of rats under 3 scores [1]: 1
Daily neural function scores, number of rats under 4 scores [1]: 0
Daily neural function scores, number of rats under 5 scores [1]: 0
Daily neural function scores, number of rats under 0 score [2]: 3
Daily neural function scores, number of rats under 1 score [2]: 4
Daily neural function scores, number of rats under 2 scores [2]: 2
Daily neural function scores, number of rats under 3 scores [2]: 0
Daily neural function scores, number of rats under 4 scores [2]: 0
Daily neural function scores, number of rats under 5 scores [2]: 0
Daily neural function scores, number of rats under 0 score [3]: 6
Daily neural function scores, number of rats under 1 score [3]: 2
Daily neural function scores, number of rats under 2 scores [3]: 1
Daily neural function scores, number of rats under 3 scores [3]: 0
Daily neural function scores, number of rats under 4 scores [3]: 0
Daily neural function scores, number of rats under 5 scores [3]: 0
Daily neural function scores, number of rats under 0 score [4]: 6
Daily neural function scores, number of rats under 1 score [4]: 3
Daily neural function scores, number of rats under 2 scores [4]: 0
Daily neural function scores, number of rats under 3 scores [4]: 0
Daily neural function scores, number of rats under 4 scores [4]: 0
Daily neural function scores, number of rats under 5 scores [4]: 0
Daily neural function scores, number of rats under 0 score [5]: 5
Daily neural function scores, number of rats under 1 score [5]: 4
Daily neural function scores, number of rats under 2 scores [5]: 0
Daily neural function scores, number of rats under 3 scores [5]: 0
Daily neural function scores, number of rats under 4 scores [5]: 0
Daily neural function scores, number of rats under 5 scores [5]: 0
Daily neural function scores, number of rats under 0 score [6]: 7
Daily neural function scores, number of rats under 1 score [6]: 2
Daily neural function scores, number of rats under 2 scores [6]: 0
Daily neural function scores, number of rats under 3 scores [6]: 0
Daily neural function scores, number of rats under 4 scores [6]: 0
Daily neural function scores, number of rats under 5 scores [6]: 0
therapeutic effect, result in words (2.5 μmol/kg 5Ak after 24 hours from stroke onset): certain therapeutic effect
Daily neural function scores, number of rats under 0 score [7]: 1
Daily neural function scores, number of rats under 1 score [7]: 4
Daily neural function scores, number of rats under 2 scores [7]: 1
Daily neural function scores, number of rats under 3 scores [7]: 0
Daily neural function scores, number of rats under 4 scores [7]: 1
Daily neural function scores, number of rats under 5 scores [7]: 0
Daily neural function scores, number of rats under 0 score [8]: 3
Daily neural function scores, number of rats under 1 score [8]: 2
Daily neural function scores, number of rats under 2 scores [8]: 1
Daily neural function scores, number of rats under 3 scores [8]: 1
Daily neural function scores, number of rats under 4 scores [8]: 0
Daily neural function scores, number of rats under 5 scores [8]: 0
Daily neural function scores, number of rats under 0 score [9]: 3
Daily neural function scores, number of rats under 1 score [9]: 2
Daily neural function scores, number of rats under 2 scores [9]: 1
Daily neural function scores, number of rats under 3 scores [9]: 0
Daily neural function scores, number of rats under 4 scores [9]: 0
Daily neural function scores, number of rats under 5 scores [9]: 1
Daily neural function scores, number of rats under 0 score [10]: 2
Daily neural function scores, number of rats under 1 score [10]: 2
Daily neural function scores, number of rats under 2 scores [10]: 1
Daily neural function scores, number of rats under 3 scores [10]: 1
Daily neural function scores, number of rats under 4 scores [10]: 0
Daily neural function scores, number of rats under 5 scores [10]: 0
Daily neural function scores, number of rats under 0 score [11]: 4
Daily neural function scores, number of rats under 1 score [11]: 0
Daily neural function scores, number of rats under 2 scores [11]: 1
Daily neural function scores, number of rats under 3 scores [11]: 0
Daily neural function scores, number of rats under 4 scores [11]: 0
Daily neural function scores, number of rats under 5 scores [11]: 1
Daily neural function scores, number of rats under 0 score [12]: 3
Daily neural function scores, number of rats under 1 score [12]: 1
Daily neural function scores, number of rats under 2 scores [12]: 1
Daily neural function scores, number of rats under 3 scores [12]: 0
Daily neural function scores, number of rats under 4 scores [12]: 0
Daily neural function scores, number of rats under 5 scores [12]: 0
rats that died during successive 6-day treatment (2.5 μmol/kg 5Ak once per day after 6 hours from stroke onset, nine rats): no death occurred
rats that died during successive 6-day treatment (2.5 μmol/kg 5Ak once per day after 24 hours from stroke onset, seven rats): two
therapeutic effect, result in words (5 μmol/kg 5Ak after 24 hours from stroke onset): definite therapeutic effect
Daily neural function scores, number of rats under 0 score [13]: 0
Daily neural function scores, number of rats under 1 score [13]: 5
Daily neural function scores, number of rats under 2 scores [13]: 4
Daily neural function scores, number of rats under 3 scores [13]: 0
Daily neural function scores, number of rats under 4 scores [13]: 1
Daily neural function scores, number of rats under 5 scores [13]: 0
Daily neural function scores, number of rats under 0 score [14]: 2
Daily neural function scores, number of rats under 1 score [14]: 6
Daily neural function scores, number of rats under 2 scores [14]: 2
Daily neural function scores, number of rats under 3 scores [14]: 0
Daily neural function scores, number of rats under 4 scores [14]: 0
Daily neural function scores, number of rats under 5 scores [14]: 0
Daily neural function scores, number of rats under 0 score [15]: 2
Daily neural function scores, number of rats under 1 score [15]: 6
Daily neural function scores, number of rats under 2 scores [15]: 2
Daily neural function scores, number of rats under 3 scores [15]: 0
Daily neural function scores, number of rats under 4 scores [15]: 0
Daily neural function scores, number of rats under 5 scores [15]: 0
Daily neural function scores, number of rats under 0 score [16]: 5
Daily neural function scores, number of rats under 1 score [16]: 5
Daily neural function scores, number of rats under 2 scores [16]: 0
Daily neural function scores, number of rats under 3 scores [16]: 0
Daily neural function scores, number of rats under 4 scores [16]: 0
Daily neural function scores, number of rats under 5 scores [16]: 0
Daily neural function scores, number of rats under 0 score [17]: 6
Daily neural function scores, number of rats under 1 score [17]: 4
Daily neural function scores, number of rats under 2 scores [17]: 0
Daily neural function scores, number of rats under 3 scores [17]: 0
Daily neural function scores, number of rats under 4 scores [17]: 0
Daily neural function scores, number of rats under 5 scores [17]: 0
Daily neural function scores, number of rats under 0 score [18]: 7
Daily neural function scores, number of rats under 1 score [18]: 3
Daily neural function scores, number of rats under 2 scores [18]: 0
Daily neural function scores, number of rats under 3 scores [18]: 0
Daily neural function scores, number of rats under 4 scores [18]: 0
Daily neural function scores, number of rats under 5 scores [18]: 0
rats that died during successive 6-day treatment (5 μmol/kg 5Ak once per day after 24 hours from stroke onset, ten rats): no death occurred
